Assay results as given in patent publication US9061077B2 (Emory University, priority 2008, dated 2015).
“And” between values parts separate entries of the source, which are not always exact repeats. Equal entries are not always repeated. Where two headings read alike, the source gives them in different places. Values belong to the compound of their own block, whether it stands above or below them.

What was measured:
[1] = cited from earlier work
[2] = eight human volunteers, single ingested dose of 10 mg; cited from earlier work
[3] = background statement; cited from earlier work
[4] = humans, cited from earlier work
[5] = cited from earlier work; remark: listed apart in the source
[6] = normal volunteers; cited from earlier work
[7] = test system: plasma protein; conditions: rats, cited from earlier work
[8] = Comparison of renal tracer clearances in human subjects relative to PAH (FIG. 4)
[9] = Biodistribution in Sprague-Dawley rats, percentage of injected dose (Example 6, Table 1); type: in vivo; conditions: for Percentage of injected dose in bowel: combined stomach and intestine
Protocol: Five samples for the 10 mins study, and six samples for the 60 mins study were used; the one sample for each time point was diluted to 100 ml, and three 1-ml portions of the resulting solution were used as standards. Each rat was anesthetized with ketamine-xylazine (2 mg/kg of body weight) injected intramuscularly, with additional supplemental anesthetic as needed. The bladder was catheterized by use of heat-flared PE-50 tubing (Becton, Dickinson and Co.) for urine collection.
A blood sample was obtained, and the heart, lungs, spleen, liver, intestines, stomach, and kidneys were removed. The whole liver was weighed, and random sections were obtained for counting. Blood, urine, whole organs, and tissue samples were placed in tubes, and each sample was weighed. […] The percentage of the dose in each tissue or organ was calculated by dividing the counts in each tissue or organ by the total injected counts, using reference counts from an accurately diluted sample of the original injection. The value given for the bowel represented combined stomach and intestine activities.

[10] = Biodistribution in normal rats, Group A (Example 7, Table 3); type: in vivo, Sprague-Dawley rats; conditions: for Percent injected dose in bowel: duodenum and colon samples; for Percent injected dose in blood: normal rats Group A, n=5
Protocol: (§1) Rats in both groups were anesthetized with ketamine-xylazine (2 mg/kg of body weight) injected intramuscularly, with additional supplemental anesthetic as needed. In the first group of ten normal rats (Group A), the bladder was catheterized by use of heat-flared PE-50 tubing. In the second group of six rats (Group B), the abdomen was open by a midline incision and both renal pedicles were ligated to produce a model of renal failure; thus no urine was collected.
(§2) One additional aliquot (0.2 mL) for each time point was diluted to 100 mL, and three 1-mL portions of the resulting solution were used as standards.
In Group A, 5 animals were sacrificed at 10 min, and 5 animals were sacrificed at 60 mins after injection. A blood sample was obtained, and the kidneys, heart, lungs, spleen, whole stomach and sections of the duodenum and ascending colon were removed and placed in counting vials. The whole liver was weighed, and random sections were obtained for counting. Samples of blood and urine were also placed in counting vials and weighed. […] The percentage of the dose in each tissue or organ was calculated by dividing the counts in each tissue or organ by the total injected counts. The percentage injected dose reported for the bowel was based on the combined counts of the duodenum and colon samples.

[11] = Biodistribution in rats with renal pedicle ligation (renal failure model), Group B; type: in vivo, Sprague-Dawley rats; conditions: 60 min
Protocol: as §1, §2
The 6 Group B rats were sacrificed 60 mins after injection. Selected organs, blood, and all of the small and large intestines were collected and counted as described above. The percentage injected dose reported for the bowel was based on the combined counts in the small and large intestines.

[12] = Renal (plasma) clearance at steady-state infusion in rats; type: in vivo; conditions: steady-state co-infusion, average of three 10-min periods
Protocol: Two male rats were anesthetized as described above and placed on a heated surgical table. Following tracheostomy, the left jugular vein was cannulated with two pieces of PE-50 tubing (one for infusion of radiopharmaceuticals and one to infuse normal saline (5.8 mL/h) to maintain hydration and additional anesthetic (5 mg/h) as necessary). The right carotid artery was cannulated for blood sampling and the bladder was catheterized by use of PE-50 tubing. The core temperature of each animal was continually monitored throughout the study using a rectal temperature probe. […] (3.7 MBq/mL [100 μCi/mL]) and ^131I-OIH (1.85 MBq/mL [50 μCi/mL]), were co-infused at a flow rate of 1.7 ml/h for 60 mins to establish steady-state blood levels. […] The blood samples were centrifuged for 15 mins and plasma samples were obtained. Plasma clearance (CI) was determined by utilizing the equation: CI (mL/min)=UV/P, where U is the urine radioactivity concentration, V is the urine volume excreted per minute and P is the plasma radioactivity concentration.

[13] = Renal extraction fraction in rats (arterial vs renal venous plasma); type: in vivo
[14] = test system: plasma protein; experiment: Plasma protein binding by ultrafiltration, rat plasma; type: in vitro ADME; conditions: rats
Protocol: (§3) Arterial blood samples were placed in capillary tubes and centrifuged to determine the hematocrit. Samples of the whole blood and packed cells (about 0.3 mL each) were pipetted into counting tubes, weighed, and counted. The percent uptake in the erythrocytes was calculated from the whole blood (counts/g) and packed cells (counts/g). Percent erythrocyte uptake=[(counts/g in erythrocytes×hematocrit)/counts/g in whole blood]. No correction was made for plasma trapped in the red blood cells sample. PPB and erythrocyte uptake were calculated in duplicate and the mean values reported.

[15] = test system: erythrocytes; experiment: Erythrocyte uptake, rat blood; type: in vitro ADME; conditions: rats
Protocol: as §3

[16] = Plasma clearance in healthy volunteers (single injection, two-compartment model); type: in vivo, human; conditions: normal volunteers (n=5), individual values and mean
From the text: (§4) Inclusion criteria required the absence of any history of kidney and bladder diseases and a normal review of systems. Pregnancy was excluded in females by means of a urine pregnancy test.

[17] = test system: plasma protein; experiment: Plasma protein binding in healthy volunteers; type: in vitro ADME, human; conditions: normal volunteers, individual values and mean
[18] = test system: red blood cells; experiment: Red cell uptake in healthy volunteers; type: in vitro ADME, human; conditions: normal volunteers, individual values and mean
[19] = normal volunteers
[20] = test system: red blood cells; conditions: human blood, equilibrium conditions; cited from earlier work
[21] = Safety in healthy volunteers (vital signs, CBC, chemistry panel, urinalysis); type: in vivo, human; conditions: about 74 MBq, pre- and 24 hr post-injection
From the text: as §4, with “Five healthy volunteers (3 male, 2 females; mean age±SD, 39.4±12.7 yrs; range 20-55 yrs) participated in this study. Inclusion” for “Inclusion”

[22] = cited from earlier work; remark: listed apart in the source
[23] = Cysteine and histidine challenge at 37 C (HPLC); conditions: 0.1 M cysteine and histidine, 4 h, listed as Na2[^99mTc(CO)3(NTA)]
[24] = In vitro stability in physiological phosphate buffer pH 7.4 (HPLC); conditions: phosphate buffer pH 7.4, 24 h, listed as Na2[^99mTc(CO)3(NTA)]

Compound: O=C(O)CN(CC(=O)O)CC(=O)O [NTA, nitrilotriacetic acid]
Acceptable daily intake in drinking water (Health Canada) ([1]; based on two-year rat studies, nephrotoxic no-observed-adverse-effect level): 10 μg/kg bw per day
Dose inducing urinary tract tumors ([1]; rats and mice, two years): about 840 mg/kg bw per day
Adverse effects (physical examination, blood chemistry, urinalysis) [2]: no evidence of adverse effects

Compound: O=C([O-])CN(CCN(CC(=O)[O-])CC(=O)[O-])CCN(CC(=O)[O-])CC(=O)[O-].[99Tc+4] [^99mTc-DTPA]
Extraction fraction (EF) [3]: 20%

Compound: O=C([O-])CN=C([O-])CN=C([O-])CN=C([O-])C[S-].[O-2].[Tc+4] [^99mTc-MAG3, technetium-99m mercaptoacetyltriglycine]
Clearance as multiple of the clearance of 99mTc-DTPA [4]: 2-2.5 times
Hepatobiliary clearance ([5]; fasting rats): 11.7%
Hepatobiliary clearance ([5]; rats with free access to food): 6.6%
Injected dose transported into the small intestine via the hepatobiliary system [6]: 0.5-1.0%
Protein binding ([7]; before infusion): 78%
Protein binding ([7]; following PAH infusion): 44%
Protein binding ([7]; following ammonium chloride infusion): 63%
Protein binding ([7]; following mannitol infusion): 42%
Protein binding ([7]; following sodium bicarbonate infusion): 65%
Extraction fraction (EF) [3]: 50-60%
Clearance relative to PAH (PAH assigned 100%) [8]: substantially less than that of PAH
Clearance relative to PAH (PAH assigned 100%) ([8]; listed as 99mTcMAG3): substantially less

Percentage of injected dose in heart ([9]; 10 min): 0.2 ± 0.1%
Percentage of injected dose in kidney ([9]; 10 min): 5.6 ± 0.6%
Percentage of injected dose in liver ([9]; 10 min): 4.0 ± 0.7%
Percentage of injected dose in lung ([9]; 10 min): 0.5 ± 0.2%
Percentage of injected dose in urine ([9]; 10 min): 53.2 ± 7.2%
Percentage of injected dose in bowel ([9]; 10 min): 2.5 ± 0.5%
Percentage of injected dose in blood ([9]; 10 min post-injection, n=5): 5.6 ± 1.0%
Percentage of injected dose in heart ([9]; 60 min): 0.0 ± 0.0%
Percentage of injected dose in kidney ([9]; 60 min): 0.5 ± 0.0%
Percentage of injected dose in liver ([9]; 60 min): 0.7 ± 0.2%
Percentage of injected dose in lung ([9]; 60 min): 0.1 ± 0.1%
Percentage of injected dose in urine ([9]; 60 min): 91.4 ± 3.7%
Percentage of injected dose in bowel ([9]; 60 min): 1.7 ± 0.7%
Percentage of injected dose in blood ([9]; 60 min post-injection, n=6): 0.5 ± 0.0%
Percent injected dose in kidney ([10]; Group A, 10 min): 5.6 ± 0.6%
Percent injected dose in liver ([10]; Group A, 10 min): 4.0 ± 0.7%
Percent injected dose in urine ([10]; Group A, 10 min): 53.2 ± 7.2%
Percent injected dose in bowel ([10]; Group A, 10 min): 2.2 ± 0.4%
Mean total injected activity present in heart, lungs, spleen, blood and liver ([10]; Group A, 60 min): 1.1%
Percent injected dose in kidney ([10]; Group A, 60 min): 0.5 ± 0.0%
Percent injected dose in liver ([10]; Group A, 60 min): 0.6 ± 0.3%
Percent injected dose in urine ([10]; Group A, 60 min): 91.4 ± 3.7%
Percent injected dose in bowel ([10]; Group A, 60 min): 1.0 ± 0.5%
Percent injected dose in blood ([10]; 10 min): 5.6 ± 1.0%
Percent injected dose in blood ([10]; 60 min): 0.5 ± 0.0%
Percent injected dose in kidney ([11]; Group B): 0.8 ± 0.2%
Percent injected dose in liver ([11]; Group B): 9.7 ± 1.7%
Percent injected dose in bowel ([11]; Group B, small and large intestines): 14.6% and 14.6 ± 2.8%
Percent injected dose in blood ([11]; renal pedicle ligation Group B, n=6): 15.1% and 15.1 ± 0.9%
Plasma clearance [12]: 2.96 mL/min/100 g
Extraction fraction [13]: 67.9±6.1% and 67.9%
Plasma protein binding [14]: 44±10%
Erythrocyte (red cell) uptake [15]: 35±1% and 35%
PPB (plasma protein binding) [17]: 77% and 74% and 79%
Urine 30 min (percent dose excreted) ([19]; 30 minutes): 80% and 74% and 78% and 55% and 64%
Urine (percent dose in urine) ([19]; collection time not given (voids at 30, 90, 180 min)): 98% and 93% and 96% and 83% and 81%
Clearance relative to PAH (PAH assigned 100%) [8]: about 90%
Compound: O=C(O)CNC(=O)c1ccccc1[131I] [^131I-OIH, ^131I-ortho-iodohippurate]
Plasma clearance, Cl [16]: 482 mL/min and 423.4 mL/min and 433.4 mL/min and 481.94 mL/min and 497.49 mL/min and 442 mL/min and 613.4 mL/min
RBC (red cell uptake) [18]: 20% and 15% and 21% and 25% and 24% and 14%
Fraction bound to or inside red blood cells [20]: 15-20%

Compound: ^99mTc-DD-ethylene dicysteine
Clearance as percent of that of PAH ([4]; literature): 60-65%

Plasma clearance [12]: 3.08 mL/min/100 g
Erythrocyte (red cell) uptake ([15]; listed as Na2[^99mTc(CO)3(NTA)]): 7±2% and 7%
Plasma clearance, Cl [16]: 480 mL/min
Plasma clearance, Cl ([16]; listed as 99mTc-NTA, mean): 479.90 mL/min
PPB (plasma protein binding) [17]: 45%
PPB (plasma protein binding) ([17]; listed as 99mTc-NTA): 39% and 40% and 50% and 42% and 53%
RBC (red cell uptake) [18]: 12%
RBC (red cell uptake) ([18]; listed as 99mTc-NTA): 6% and 15% and 20% and 16% and 4%
RBC (red cell uptake) ([18]; listed as 99mTc-NTA, mean): 12%
Stability to cysteine and histidine challenge [23]: no degradation
Stability at physiological pH [24]: stable for 24 h
Clearance relative to PAH (PAH assigned 100%) [8]: about 90%
Compound: technetium-99m tricarbonyl-nitrilotriacetic acid [^99mTc(CO)3(NTA)]
Plasma clearance, Cl ([16]; listed as 99mTc-NTA): 477.1 mL/min and 607.9 mL/min and 388.5 mL/min and 434.2 mL/min and 491.8 mL/min
Toxicity (blood pressure, heart rate, temperature, CBC, chemistry panel, urine analysis) [21]: no evidence of any toxicity
pKa of the pendant carboxylic acid [22]: approximately 3
